ChEMBL document CHEMBL1201862, “PubChem BioAssay data set” (2004)
Calls of active or inactive are those of the source. For most assays here, no stated cut-off is given here; in the data, actives have a measured EC50 and inactives only a lower limit.

Assays:
[1] = target: T1, Replicative DNA helicase DnaB (Mycobacterium tuberculosis, UniProt P9WMR3); assay: DnaB intein splicing inhibitors, dose response, biochemical, cell-free fluorescence (AID 449749); assay type: functional
T1 sequence (P9WMR3 whole entry): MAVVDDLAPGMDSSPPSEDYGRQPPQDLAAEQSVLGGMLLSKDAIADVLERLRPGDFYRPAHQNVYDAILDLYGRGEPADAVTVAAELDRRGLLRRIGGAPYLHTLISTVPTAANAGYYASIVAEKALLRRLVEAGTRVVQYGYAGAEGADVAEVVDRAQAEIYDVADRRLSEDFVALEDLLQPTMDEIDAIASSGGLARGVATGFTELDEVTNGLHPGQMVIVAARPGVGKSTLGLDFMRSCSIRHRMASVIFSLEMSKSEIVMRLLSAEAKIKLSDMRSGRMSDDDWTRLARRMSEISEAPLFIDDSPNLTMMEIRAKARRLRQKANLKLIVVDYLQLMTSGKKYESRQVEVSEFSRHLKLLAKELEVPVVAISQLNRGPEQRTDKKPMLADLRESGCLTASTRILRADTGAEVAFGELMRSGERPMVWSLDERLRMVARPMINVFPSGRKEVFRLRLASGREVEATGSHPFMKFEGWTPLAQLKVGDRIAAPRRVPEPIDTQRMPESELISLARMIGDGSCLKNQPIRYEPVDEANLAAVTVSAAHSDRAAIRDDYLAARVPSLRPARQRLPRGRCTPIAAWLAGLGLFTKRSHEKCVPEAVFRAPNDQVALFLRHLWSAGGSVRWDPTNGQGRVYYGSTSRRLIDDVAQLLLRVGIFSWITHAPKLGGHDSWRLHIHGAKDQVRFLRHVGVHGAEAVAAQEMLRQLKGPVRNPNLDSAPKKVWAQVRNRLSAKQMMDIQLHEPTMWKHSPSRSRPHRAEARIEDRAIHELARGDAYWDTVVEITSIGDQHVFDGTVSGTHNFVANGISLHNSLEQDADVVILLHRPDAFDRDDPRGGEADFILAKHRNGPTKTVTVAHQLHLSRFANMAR

[2] = target: T2, Protein RecA (Mycobacterium tuberculosis, UniProt P9WHJ3); assay: Fluorescence Cell-Free Homogeneous Dose Retest to Identify Inhibitors of RecA-Intein Splicing Activity. [Related pubchem assays (depositor defined):AID2097, AID2223, AID489010, AID492950]; assay type: functional
T2 sequence (P9WHJ3 whole entry): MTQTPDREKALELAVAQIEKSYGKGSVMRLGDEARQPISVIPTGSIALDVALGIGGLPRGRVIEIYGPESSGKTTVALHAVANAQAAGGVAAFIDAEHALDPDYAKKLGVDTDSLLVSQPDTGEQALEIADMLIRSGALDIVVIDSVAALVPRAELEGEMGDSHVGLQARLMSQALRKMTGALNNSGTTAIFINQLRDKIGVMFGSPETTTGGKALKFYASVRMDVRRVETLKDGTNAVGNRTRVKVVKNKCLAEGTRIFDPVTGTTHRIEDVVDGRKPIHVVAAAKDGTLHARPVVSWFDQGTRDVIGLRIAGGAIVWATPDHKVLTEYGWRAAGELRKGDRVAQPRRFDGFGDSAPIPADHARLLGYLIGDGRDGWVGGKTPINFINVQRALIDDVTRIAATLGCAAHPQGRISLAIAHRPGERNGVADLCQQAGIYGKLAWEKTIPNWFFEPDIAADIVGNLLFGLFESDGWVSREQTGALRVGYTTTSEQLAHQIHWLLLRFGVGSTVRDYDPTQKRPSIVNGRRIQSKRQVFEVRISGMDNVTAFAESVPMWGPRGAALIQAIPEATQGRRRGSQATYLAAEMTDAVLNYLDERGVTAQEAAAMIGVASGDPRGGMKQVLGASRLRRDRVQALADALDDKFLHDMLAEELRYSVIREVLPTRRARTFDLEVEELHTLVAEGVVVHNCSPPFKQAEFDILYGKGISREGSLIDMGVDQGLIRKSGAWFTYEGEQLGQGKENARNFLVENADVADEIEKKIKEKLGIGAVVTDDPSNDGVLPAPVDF

[3] = target: Cytochrome P450 2D6 (Homo sapiens, UniProt P10635);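 further: CYP2D6 member of a cytochrome P450 panel assay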
[4] = target: T3, Corticotropin-releasing factor receptor 2/Corticotropin-releasing factor-binding protein (Homo sapiens, UniProt P24387+Q13324); assay: activators of CRF receptor 2 with binding protein – uHTS hits, confirmation (AID 602473); assay type: functional; settings: read-out: EC50_Mean
T3 sequence (Q13324 whole entry): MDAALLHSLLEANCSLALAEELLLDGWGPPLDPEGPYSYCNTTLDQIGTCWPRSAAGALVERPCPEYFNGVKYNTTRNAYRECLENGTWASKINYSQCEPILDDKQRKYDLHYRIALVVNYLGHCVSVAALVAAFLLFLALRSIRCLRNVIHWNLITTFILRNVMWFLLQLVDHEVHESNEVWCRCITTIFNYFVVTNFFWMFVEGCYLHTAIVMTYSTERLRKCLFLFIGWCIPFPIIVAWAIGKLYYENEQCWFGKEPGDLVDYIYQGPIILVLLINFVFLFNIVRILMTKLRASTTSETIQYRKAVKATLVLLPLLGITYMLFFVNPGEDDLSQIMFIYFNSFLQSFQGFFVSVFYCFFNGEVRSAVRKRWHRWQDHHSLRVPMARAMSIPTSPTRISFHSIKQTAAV
T3 sequence (P24387 whole entry): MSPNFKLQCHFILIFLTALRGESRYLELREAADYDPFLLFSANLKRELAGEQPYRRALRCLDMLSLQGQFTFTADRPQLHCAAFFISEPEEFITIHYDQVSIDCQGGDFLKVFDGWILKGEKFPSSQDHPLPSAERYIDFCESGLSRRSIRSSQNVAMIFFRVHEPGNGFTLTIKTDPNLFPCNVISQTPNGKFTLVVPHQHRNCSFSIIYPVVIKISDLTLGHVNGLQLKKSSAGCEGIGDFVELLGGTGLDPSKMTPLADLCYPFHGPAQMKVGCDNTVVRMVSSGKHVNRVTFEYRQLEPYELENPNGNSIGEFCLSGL

[5] = Trypanosoma cruzi growth suppression in host cells – NIH3T3 host cells, beta-gal luminescence, confirmation (AID 2044); assay type: functional, cell-based;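 further: intracellular parasites grown in NIH/3T3 mouse fibroblasts as host cells; luminescent beta-galactosidase reporter signal from transgenic T. cruzi replicating inside host cells; inhibitors lower the luminescence signal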
[6] = NIH3T3 cell viability loss – ATP luminescence, mouse fibroblasts, counter-screen, dose response (AID 2010); assay type: functional, cell-based;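 further: cells exposed to compound for about 90 hours before reading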
[7] = target: Large T antigen (Simian virus 40, UniProt P03070); assay type: functional, Betapolyomavirus macacae;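 further: Confirmatory-stage PubChem screen for compounds that inhibit SV40 T antigen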
Large T antigen, sequence (P03070 whole entry): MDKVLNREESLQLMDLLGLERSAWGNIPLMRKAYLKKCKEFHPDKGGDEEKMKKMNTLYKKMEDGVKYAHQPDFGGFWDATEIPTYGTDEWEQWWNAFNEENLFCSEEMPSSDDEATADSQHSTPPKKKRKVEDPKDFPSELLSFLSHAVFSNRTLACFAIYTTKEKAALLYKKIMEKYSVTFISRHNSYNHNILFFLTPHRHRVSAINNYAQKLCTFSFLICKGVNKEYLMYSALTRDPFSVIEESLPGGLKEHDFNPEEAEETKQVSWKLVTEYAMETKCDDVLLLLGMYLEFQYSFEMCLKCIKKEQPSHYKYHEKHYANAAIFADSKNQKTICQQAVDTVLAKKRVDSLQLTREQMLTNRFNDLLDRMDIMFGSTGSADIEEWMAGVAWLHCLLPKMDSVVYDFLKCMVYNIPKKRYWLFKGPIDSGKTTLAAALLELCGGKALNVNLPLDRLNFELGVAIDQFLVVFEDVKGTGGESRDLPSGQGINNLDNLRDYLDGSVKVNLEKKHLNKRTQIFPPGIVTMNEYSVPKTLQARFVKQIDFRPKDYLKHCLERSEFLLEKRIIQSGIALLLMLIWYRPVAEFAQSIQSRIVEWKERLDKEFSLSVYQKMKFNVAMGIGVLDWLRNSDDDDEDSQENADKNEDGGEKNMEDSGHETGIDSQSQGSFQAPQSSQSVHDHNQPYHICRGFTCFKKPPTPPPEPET

Cytochrome P450 2D6, sequence (P10635 whole entry): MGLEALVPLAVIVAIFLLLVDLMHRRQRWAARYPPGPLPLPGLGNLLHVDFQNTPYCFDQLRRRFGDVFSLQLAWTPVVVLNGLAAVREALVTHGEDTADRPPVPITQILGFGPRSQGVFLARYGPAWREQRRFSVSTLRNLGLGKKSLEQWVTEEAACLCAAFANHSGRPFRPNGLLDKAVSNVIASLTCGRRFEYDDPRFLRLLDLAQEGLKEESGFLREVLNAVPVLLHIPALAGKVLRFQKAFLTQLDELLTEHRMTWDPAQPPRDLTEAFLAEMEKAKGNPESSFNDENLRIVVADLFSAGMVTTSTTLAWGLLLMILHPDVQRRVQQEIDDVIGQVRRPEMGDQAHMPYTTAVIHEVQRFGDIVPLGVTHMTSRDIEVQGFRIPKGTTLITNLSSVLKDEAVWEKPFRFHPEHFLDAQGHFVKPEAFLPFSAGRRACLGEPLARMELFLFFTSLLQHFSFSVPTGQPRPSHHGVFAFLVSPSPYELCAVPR

## NS(=O)(=O)c1ccc(/N=C/c2c(O)oc3ccccc3c2=O)cc1
[1]
  AC50: > 380 µM (inactive)
[2]
  EC50: > 380 µM (inactive)

## CCCN1CCC[C@@H]2Cc3nc(N)ncc3C[C@H]21 [QUINELORANE]
[3]
  AC50: 25.1 µM (inconclusive)

## CCN1C(=O)C(=CC=CN(C)c2ccccc2)SC1=S
[4]
  EC50: 6.59 µM (active)

## CCCc1[nH][nH]c(=O)c1C(c1cccc(Cl)c1)C(C#N)C#N (stereo not drawn)
[1]
  AC50: > 380 µM (inactive)
[2]
  EC50: 0.755 µM (active)

## N#C/C(=C(/O)c1ccc([N+](=O)[O-])s1)c1nc2ccccc2[nH]1
[5]
  EC50: 0.233 µM (active)
[6]
  EC50: 4.89 µM (active)

## COc1ccc(N2CCC(CN=C(S)Nc3c(C)cccc3C)C2)cc1 (stereo not drawn)
[7]
  IC50: 14.6 µM (active)
[5]
  EC50: 2.76 µM (active)
[6]
  EC50: > 60 µM (not active)

## O=C(Oc1ccc(Br)cc1C(=S)N1CCCCC1)c1cc([N+](=O)[O-])cc([N+](=O)[O-])c1
[1]
  AC50: 23.9 µM (active)
[2]
  EC50: 1.71 µM (active)

## CCN(C(=O)CSc1ncccc1C(=O)Oc1cccc([N+](=O)[O-])c1)c1cccc(C)c1
[1]
  AC50: 3.43 µM (active)
[2]
  EC50: > 380 µM (inconclusive)

## CC1=NNC(=O)C1C(c1ccccc1)C(C#N)C#N (stereo not drawn)
[1]
  AC50: 5.23 µM (active)
[2]
  EC50: 3.84 µM (active)

## O=C1COC(c2ccccc2O)=NN1CCCN1CCCC1
[3]
  AC50: 3.16 µM (inconclusive)

## CCOC(=O)c1c(NC(=O)CSc2nnnn2C)sc(C)c1C
[3]
  AC50: 25.1 µM (inconclusive)

## Cn1c(=O)c2c(nc(S)n2Cc2ccc(Cl)cc2)n(C)c1=O
[7]
  IC50: 16.2 µM (active)

## C/C=C/C(=O)Nc1cccc(C2=NOC3(C2)C[C@@H](C(N)=O)N(C(=O)c2cc([N+](=O)[O-])cc([N+](=O)[O-])c2C)C3)c1 (stereo partly drawn)
[4]
  EC50: > 53 µM (inactive)

## COc1ccc([C@@H](C)c2cc3c(cc2O)OCO3)cc1
[3]
  AC50: 3.98 µM (inconclusive)

## CN1CCN(/N=C/c2ccc(-c3ccc([N+](=O)[O-])cc3Cl)o2)CC1
[5]
  EC50: 0.474 µM (active)
[6]
  EC50: > 60 µM (inconclusive)

## Cc1ccc(-[n+]2cc(=O)o[nH]2)cc1
[3]
  AC50: 1.58 µM (inconclusive)

## C=CCn1c(SCC(C)=O)nc2scc(-c3ccco3)c2c1=O
[7]
  IC50: 60.2 µM (active)

## COc1cc(/C=C2/C(=O)N(c3ccccc3)N=C2C)ccc1OS(=O)(=O)c1ccccc1
[1]
  AC50: 1.94 µM (active)
[2]
  EC50: 1.5 µM (active)

## COc1ccccc1/N=C/C=C1OC(C)(C)C(C)(C)O1
[5]
  EC50: 3.65 µM (active)
[6]
  EC50: > 60 µM (not active)

## COc1cc(/C=N/NC(=O)CC#N)cc(Br)c1O
[7]
  IC50: 9.57 µM (active)

## CC(C)N1CCc2c(sc(NC(=O)c3ccc(S(=O)(=O)N4CCOCC4)cc3)c2C#N)C1
[4]
  EC50: 5.69 µM (active)

## Cc1ccccc1-c1cncnc1Nc1ccc(F)cc1
[3]
  AC50: 39.8 µM (inconclusive)

## CCN1C(=O)C2(C(C(=O)c3cc4ccccc4o3)=C(O)C(=O)N2CCCN(C)C)c2ccccc21 (stereo not drawn)
[7]
  IC50: 52.4 µM (active)

## Cc1n[nH]c(Nc2ccc(O)cc2)c1[N+](=O)[O-]
[7]
  IC50: 7.06 µM (active)

## CCOC(=O)/C(=N\Nc1ccccc1Cl)N1CCN(c2ccccc2OC)CC1
[5]
  EC50: 1.18 µM (active)
[6]
  EC50: 33.7 µM (active)

## CCOC(=O)N/N=C\c1ccc(OC(=O)c2ccco2)cc1
[1]
  AC50: 17 µM (active)
[2]
  EC50: 14.5 µM (active)

## C=C(C)COc1ccc(-c2ncncc2-c2ccccc2OC)c(O)c1
[5]
  EC50: 0.544 µM (active)
[6]
  EC50: > 60 µM (not active)

## Cc1ccc(-c2nn(-c3cc(N4CCNCC4)ccc3[N+](=O)[O-])c(=O)c3ccccc23)cc1
[5]
  EC50: 2.04 µM (active)
[6]
  EC50: > 60 µM (inconclusive)

## CC(C)(C)c1[nH]nc2c1C(c1ccoc1)C(C#N)=C(N)O2 (stereo not drawn)
[1]
  AC50: 20.4 µM (active)
[2]
  EC50: 3.58 µM (active)

## Cc1ccccc1-n1nc2c(c1NC(=O)c1ccc(S(=O)(=O)N(C)C)cc1)CSC2
[3]
  AC50: 28.2 µM (inconclusive)

## O=Cc1sc(=O)n(Cc2cccc(C(=O)O)c2)c1Cl
[7]
  IC50: 18.6 µM (active)
[1]
  AC50: 16.5 µM (active)
[2]
  EC50: 9.42 µM (active)

## Nc1ccc(O)c2ccccc12
[1]
  AC50: 16 µM (active)
[2]
  EC50: 10.1 µM (active)

## COc1ccc2[nH]c(C)c(CCN(Cc3cccs3)C(S)=Nc3cccc(F)c3)c2c1
[5]
  EC50: 3.35 µM (active)
[6]
  EC50: > 60 µM (not active)

## Cc1cc(C(=O)CN2C(=O)c3ccccc3C2=O)c(C)n1C1CC1
[1]
  AC50: > 380 µM (inactive)
[2]
  EC50: > 380 µM (inactive)

## COc1ccccc1CNc1ncncc1-c1cccnc1
[3]
  AC50: 20 µM (inconclusive)

## COC(=O)[C@@]1(Cc2ccccc2)[C@H]2c3cc(C(=O)N(C)C)n(Cc4ccsc4Br)c3C[C@H]2CN1C(=O)c1ccccc1
[3]
  AC50: 31.6 µM (inconclusive)

## CCC(=O)Oc1ccc(C(=O)Nc2cccc(C(=O)c3ccccc3)c2)cc1
[1]
  AC50: 13.2 µM (active)
[2]
  EC50: 13.8 µM (active)

## O=C1/C(=C/c2ccncc2)SC(=S)N1Nc1ccccc1
[7]
  IC50: 12.7 µM (active)

## CCOc1ccc(C(c2c(C)n[nH]c2O)c2c(C)n[nH]c2O)cc1OCC
[1]
  AC50: 0.412 µM (active)
[2]
  EC50: 0.183 µM (active)

## Cc1ccc(S(=O)(=O)CCC(=O)c2cccc([N+](=O)[O-])c2)cc1
[5]
  EC50: 2.47 µM (active)
[6]
  EC50: > 60 µM (not active)

## CC(C)c1ccc(C2C3=C(CC(C)(C)CC3=O)N=C3C2=C(O)c2ccccc23)cc1 (stereo not drawn)
[5]
  EC50: 1.68 µM (active)
[6]
  EC50: > 60 µM (not active)

## Cc1ccc(-n2nnnc2CCl)cc1
[1]
  AC50: 54.2 µM (active)
[2]
  EC50: 7.8 µM (active)

## COc1cc(CNc2ccc(N3CCOCC3)cc2)ccc1OCC(=O)NC(C)(C)C
[7]
  IC50: 4.16 µM (active)

## COC(=O)c1c(NC(=O)CN2CCC3(O)CCCCC3C2c2ccccc2OC)sc(C)c1C (stereo not drawn)
[4]
  EC50: > 53 µM (inactive)

## CC(=O)Nc1ccc(NC(=O)CSc2ncc(C(=O)Nc3ccc(F)cc3)c(=O)n2C)cc1
[1]
  AC50: > 380 µM (inactive)
[2]
  EC50: > 380 µM (inconclusive)

## COc1cc(/C=N/NC(=O)C(=O)NCc2ccco2)ccc1O
[7]
  IC50: 12.9 µM (active)
